# Source: article PMC9667534, “Insertion of Nanoluc into the Extracellular Loops as a Complementary Method To Establish BRET-Based Binding Assays for GPCRs” (ACS Pharmacology & Translational Science, 2022)
# Values joined by “and” are separate entries in the source; they are usually repeats but may differ in a detail not shown here. Identical values can stand only once. Like-named read-outs stand apart in the source and are kept apart here.
# What was measured:
# Nluc-Y1R(Y192) [1] = biological target: T1, Nluc-Y1R(Y192) (Homo sapiens, UniProt P25929); test: BRET competition binding with fluorescent ligand 1; settings: competition with 1 (c = 0.5 nM, Kd = 0.24 nM), intact HEK293T cells, mean ± SEM
# T1 sequence (P25929 1-384): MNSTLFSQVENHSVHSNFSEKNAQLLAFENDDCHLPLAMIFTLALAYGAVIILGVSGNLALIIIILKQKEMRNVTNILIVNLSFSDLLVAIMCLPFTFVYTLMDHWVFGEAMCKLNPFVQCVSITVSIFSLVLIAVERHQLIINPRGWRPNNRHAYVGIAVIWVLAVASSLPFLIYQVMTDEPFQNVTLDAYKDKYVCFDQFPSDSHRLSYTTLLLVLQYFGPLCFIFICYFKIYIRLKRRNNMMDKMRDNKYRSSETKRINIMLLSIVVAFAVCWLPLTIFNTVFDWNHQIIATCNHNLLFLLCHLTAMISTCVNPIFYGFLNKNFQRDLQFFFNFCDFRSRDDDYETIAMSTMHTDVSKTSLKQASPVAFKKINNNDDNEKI
# Experimental: (§1) BRET binding experiments were essentially performed as described[18] with the following minor modifications: 1 day prior to the experiment, HEK293T cells stably expressing the respective Nluc-receptor fusion construct were detached from the cell culture dish by trypsinization, centrifuged (500g, 5 min), and resuspended in L-15 with 5% FCS and 10 mM HEPES (pH 7.4). […] Subsequently, 10 μL of assay buffer containing the investigated fluorescent ligand was added to all wells. After an incubation period of 60 min at 27 °C, 10 μL of the Nluc substrate furimazine (prediluted 1:1000 before use) was added and after an equilibration time of 5 min inside the plate reader (prewarmed to 27 °C), the measurement was started.
# (§2) A positive control containing only fluorescent ligand and no competitor (100% value), as well as a negative control (buffer, 0% value), was included in every experiment.
# (§3) For competition binding experiments, the data were normalized to the BRET ratio obtained for the negative control (buffer, 0% value) and the BRET ratio obtained for wells containing fluorescent ligand, but no competitor (100% value). […] The obtained pIC50 values were subsequently transformed into pKi values by means of the Cheng–Prusoff equation (logarithmic form),[80] for which means and SEMs were calculated.
# Nluc-Y1R(Q291) [2] = biological target: T2, Nluc-Y1R(Q291) (Homo sapiens, UniProt P25929); test: BRET competition binding with fluorescent ligand 1; settings: competition with 1 (c = 0.5 nM, Kd = 0.29 nM), HEK293T cells; mean ± SEM
# T2 sequence (P25929 1-384): T1 sequence (P25929 1-384)
# Experimental: as §1, §2, §3
# Y1R [3] = biological target: Y1R; set-up: method as in ref 24,25,27,30-38 (per cell); settings: different expression systems, sodium-containing or sodium-free buffers, ref 24,25,27,30-38 (per cell); cited from earlier work
# wild-type Y1R = biological target: wild-type Y1R; set-up: method as in PMID 35263541; settings: cited from earlier work
# Nluc-Y1R(Y192) [4] = biological target: T1, Nluc-Y1R(Y192); test: BRET saturation binding at intact HEK293T cells
# Experimental: as §1
# (§4) For BRET experiments, the “raw BRET ratio” was calculated by dividing the emission detected through the 610 LP filter (acceptor) by the emission detected through the 460 BP filter (donor). A baseline correction was performed for all values by subtracting the BRET ratio of a buffer control, yielding “corrected BRET ratios”. […] The obtained Kd values were transformed into pKd values, for which means and SEMs were calculated.
# Nluc-Y1R(Q291) [5] = biological target: T2, Nluc-Y1R(Q291); test: BRET saturation binding at intact HEK293T cells
# Experimental: as §1, §4
# Nluc-Y1R(Δ1–31) = biological target: T3, Nluc-Y1R(Δ1–31) (Homo sapiens, UniProt P25929); test: BRET saturation binding at intact HEK293T cells; settings: mean ± SEM, read-out: pKd (BRET) (converted)
# T3 construct: fused Nluc to Asp32 of the Y1R via a short linker; expressed in transfected cells; host or cells: HEK293T, stably transfected (pcDNA3.1)
# T3 sequence (P25929 32-384): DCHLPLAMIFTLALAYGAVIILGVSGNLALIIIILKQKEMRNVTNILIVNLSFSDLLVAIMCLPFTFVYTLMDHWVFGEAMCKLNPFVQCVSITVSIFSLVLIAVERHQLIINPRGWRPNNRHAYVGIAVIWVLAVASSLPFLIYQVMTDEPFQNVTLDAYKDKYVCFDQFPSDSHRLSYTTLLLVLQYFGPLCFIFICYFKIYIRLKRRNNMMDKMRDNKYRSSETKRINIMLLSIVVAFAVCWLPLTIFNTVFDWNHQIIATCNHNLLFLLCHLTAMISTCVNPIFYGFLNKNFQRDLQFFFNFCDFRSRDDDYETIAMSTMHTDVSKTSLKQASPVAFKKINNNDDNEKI
# Experimental: as §1, §4
# Nluc-Y1R(Nterm) = biological target: T4, Nluc-Y1R(Nterm) (Homo sapiens, UniProt P25929); test: BRET saturation binding at intact HEK293T cells
# T4 construct: expressed in transfected cells; host or cells: HEK293T, stably transfected (pcDNA3.1)
# T4 sequence (P25929 1-384): T1 sequence (P25929 1-384)
# Experimental: as §1, §4
# Nluc-Y1R(Y192) [6] = biological target: T1, Nluc-Y1R(Y192); test: Kinetic BRET binding (association and dissociation); settings: 1 c = 0.5 nM
# Nluc-AT1R(S186) = biological target: T5, Nluc-AT1R(S186) (Homo sapiens, UniProt P30556); test: BRET competition binding with fluorescent ligand 3
# T5 sequence (P30556 1-359): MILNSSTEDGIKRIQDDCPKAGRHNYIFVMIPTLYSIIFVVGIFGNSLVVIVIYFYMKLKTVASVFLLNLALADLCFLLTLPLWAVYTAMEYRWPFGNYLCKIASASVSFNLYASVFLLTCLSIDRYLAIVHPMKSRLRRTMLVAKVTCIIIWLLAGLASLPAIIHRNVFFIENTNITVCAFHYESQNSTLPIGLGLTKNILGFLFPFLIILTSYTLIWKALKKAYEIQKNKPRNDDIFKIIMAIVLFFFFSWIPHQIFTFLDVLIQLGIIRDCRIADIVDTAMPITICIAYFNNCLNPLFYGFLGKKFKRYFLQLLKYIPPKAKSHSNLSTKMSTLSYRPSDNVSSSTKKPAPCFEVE
# Experimental: as §1
# A positive control containing only fluorescent ligand and no competitor (100% value), as well as a negative control (buffer, 0% value), was included in every experiment. […]
# as §3
# AT1R = biological target: AT1R; set-up: method as in ref 41,44,46-49 (per cell); settings: different expression systems, ref 41,44,46-49 (per cell); cited from earlier work
# Nluc-M1R(G176) [7] = biological target: T6, Nluc-M1R(G176) (Homo sapiens, UniProt P11229); test: biochemical; assay type: binding
# T6 sequence (P11229 1-460): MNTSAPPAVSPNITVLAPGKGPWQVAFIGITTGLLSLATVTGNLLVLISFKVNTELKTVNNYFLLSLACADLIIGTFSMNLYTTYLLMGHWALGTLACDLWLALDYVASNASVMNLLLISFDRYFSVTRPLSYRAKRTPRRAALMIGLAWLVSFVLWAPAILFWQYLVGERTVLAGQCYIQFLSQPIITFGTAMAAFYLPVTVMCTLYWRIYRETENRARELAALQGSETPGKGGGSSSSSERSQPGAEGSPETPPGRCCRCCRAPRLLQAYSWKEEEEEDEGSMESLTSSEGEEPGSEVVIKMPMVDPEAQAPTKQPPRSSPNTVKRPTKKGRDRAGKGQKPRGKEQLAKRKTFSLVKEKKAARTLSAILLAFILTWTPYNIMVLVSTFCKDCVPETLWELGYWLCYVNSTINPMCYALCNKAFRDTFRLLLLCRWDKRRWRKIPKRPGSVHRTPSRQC
# Experimental: BRET binding experiments were essentially performed as described[18] with the following minor modifications: 1 day prior to the experiment, HEK293T cells stably expressing the respective Nluc-receptor fusion construct were detached from the cell culture dish by trypsinization, centrifuged (500g, 5 min), and resuspended in L-15 with 5% FCS and 10 mM HEPES (pH 7.4). […] Subsequently, 10 μL of assay buffer containing the investigated fluorescent ligand was added to all wells.
# as §2, §3
# M1R = settings: cited from earlier work
# Y1R [8] = biological target: Y1R; set-up: method as in PMID 35263541; settings: 1 as the fluorescent probe; cited from earlier work
# NTS1R = biological target: NTS1R; set-up: method as in ref 42,44,50-53 (per cell); settings: different expression systems, ref 42,44,50-53 (per cell); cited from earlier work
# Nluc-NTS1R(T227) = test: BRET competition binding with fluorescent ligand 2; set-up: species or system human; settings: competition with 2 (c = 5 nM, Kd = 4.82 nM), intact HEK293T cells, mean ± SEM
# Sequence of Nluc-NTS1R(T227) (P30989 1-227 limits assumed): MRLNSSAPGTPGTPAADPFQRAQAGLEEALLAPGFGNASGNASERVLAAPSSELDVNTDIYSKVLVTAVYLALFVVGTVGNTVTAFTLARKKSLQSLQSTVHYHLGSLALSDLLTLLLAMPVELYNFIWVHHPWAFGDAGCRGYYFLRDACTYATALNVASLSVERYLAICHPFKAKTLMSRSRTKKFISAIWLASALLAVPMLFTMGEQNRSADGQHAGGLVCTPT
# Sequence of Nluc-NTS1R(T227) (P30989 228-418 limits assumed): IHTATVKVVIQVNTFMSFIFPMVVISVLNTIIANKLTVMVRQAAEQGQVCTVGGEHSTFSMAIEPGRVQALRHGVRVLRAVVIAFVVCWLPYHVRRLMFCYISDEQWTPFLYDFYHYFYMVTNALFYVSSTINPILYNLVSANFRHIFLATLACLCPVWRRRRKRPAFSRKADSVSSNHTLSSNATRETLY
# Experimental: as §1, §2, §3
# Nluc-M1R(G176) [9] = biological target: T6, Nluc-M1R(G176); test: BRET saturation binding at intact HEK293T cells
# Experimental: as §1, §4
# Nluc-M1R(Nterm) = biological target: T7, Nluc-M1R(Nterm) (Homo sapiens, UniProt P11229); test: BRET saturation binding at intact HEK293T cells; settings: mean ± SEM, read-out: pKd (BRET) (converted)
# T7 construct: expressed in transfected cells; host or cells: HEK293T, stably transfected (pcDNA3.1)
# T7 sequence (P11229 1-460): T6 sequence (P11229 1-460)
# Experimental: as §1, §4
# Nluc-M1R(G176) [10] = biological target: T6, Nluc-M1R(G176); test: Kinetic BRET binding (association and dissociation)
# Nluc-NTS1R(T227) (human) [11] = biological target: Nluc-NTS1R(T227) (human) (UniProt P30989); test: FRET or BRET; BRET saturation binding of the fluorescent ligand at intact HEK293T cells stably expressing the Nluc-receptor construct; 60 min, 27 °C; L-15, 10 mM HEPES pH 7.4, 2% BSA; nonspecific binding with 100-fold excess of SR142948 or candesartan
# Sequence of Nluc-NTS1R(T227) (human) (P30989 whole entry): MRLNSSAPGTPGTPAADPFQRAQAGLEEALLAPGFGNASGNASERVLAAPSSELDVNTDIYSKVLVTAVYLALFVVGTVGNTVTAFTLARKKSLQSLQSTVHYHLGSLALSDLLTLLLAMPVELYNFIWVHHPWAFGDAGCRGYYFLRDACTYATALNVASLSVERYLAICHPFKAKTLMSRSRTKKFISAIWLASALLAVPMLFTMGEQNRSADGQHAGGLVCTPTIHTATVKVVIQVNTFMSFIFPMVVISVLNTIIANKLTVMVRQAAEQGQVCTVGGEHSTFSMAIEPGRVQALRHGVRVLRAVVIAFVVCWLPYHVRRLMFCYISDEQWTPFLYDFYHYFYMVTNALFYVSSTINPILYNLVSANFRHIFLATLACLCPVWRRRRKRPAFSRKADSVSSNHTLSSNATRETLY
# Nluc-NTS1R(T227) (human) [12] = biological target: Nluc-NTS1R(T227) (human) (UniProt P30989); test: FRET or BRET; kinetic BRET binding (association then dissociation) at intact HEK293T cells, 27 °C; fluorescent ligand 10 nM; dissociation started with SR142948 or candesartan (2.5 μM)
# [13] = intact HEK293T cells, mean ± SEM, read-out: pKd (BRET) (converted)
# [14] = value used for Cheng–Prusoff, read-out: Kd
# [15] = intact HEK293T cells, mean ± SEM
compound,measurement,setting,value
CCC(=O)NCCNC(=O)N=C(N)NCCC[C@@H](NC(=O)C(c1ccccc1)c1ccccc1)C(=O)NCc1ccc(O)cc1 [UR-MK299],pKi (BRET),Nluc-Y1R(Y192) [1],10.20 ± 0.06
same,"pKi (BRET, Nluc-Y1R(Q291))",Nluc-Y1R(Q291) [2],10.06 ± 0.07
same,reference values (literature),Y1R [3],10.11[25]
CCC(=O)NCCNC(=O)N=C(N)NCCC[C@@H](NC(=O)[C@@H](c1ccccc1)c1cccc(OCCCC[n+]2c(C)cc(/C=C/C=C/c3ccc(N(C)C)cc3)cc2C)c1)C(=O)NCc1ccc(O)cc1 [compound 1],pKi (radioligand competition binding),wild-type Y1R,9.95
same,Kd,Nluc-Y1R(Y192) [4]; [13],0.24 nM
same,Kd,Nluc-Y1R(Y192) [4]; [14],0.24 nM
same,Kd,Nluc-Y1R(Q291) [5]; [13],0.288 nM
same,Kd,Nluc-Y1R(Q291) [5]; [14],0.29 nM
same,Kd,Nluc-Y1R(Δ1–31),2.88 nM
same,specific signal in BRET saturation binding,Nluc-Y1R(Nterm),no specific signal was detectable
same,time of association,Nluc-Y1R(Y192) [6],≤ 60 min
same,koff,Nluc-Y1R(Y192) [6]; [15],6.67e-05 s⁻¹
same,kon,Nluc-Y1R(Y192) [6]; [15],2.38e+06 M⁻¹ s⁻¹
same,fraction still bound after initiation of dissociation,"Nluc-Y1R(Y192) [6]; after 4 h, dissociation by BIBO3304",≈ 40%
same,Kd,"Nluc-Y1R(Y192) [6]; kinetically derived, mean ± SEM, read-out: pKd kinetic (converted)",0.024 nM
angiotensin II,time until pIC50 value stabilized,Nluc-AT1R(S186); kinetic BRET competition binding with 3 at Nluc-AT1R(S186),≤ 45 min
same,reference values (literature),AT1R,"7.61–9.62[44],[46]−[49]"
BMS193885,pKi (BRET),Nluc-Y1R(Y192) [1],8.23 ± 0.01
same,reference values (literature),Y1R [3],"7.66–8.48[27],[35],[36]"
NC(N)=NCCC[C@@H](NC(=O)C(c1ccccc1)c1ccccc1)C(=O)NCc1ccc(O)cc1 [BIBP3226],reference values (literature),Y1R [3],"8.14–9.00[25],[27],[30],[33],[34]"
C[N+](C)(C)CC#CCOC1=NOCC1 [iperoxo],pKi (BRET),Nluc-M1R(G176) [7],7.00 ± 0.07
same,reference values (literature),M1R,6.46[56]
porcine neuropeptide Y [pNPY],pKi (flow cytometry-based competition binding),Y1R [8],7.58
same,reference values (literature),Y1R [3],"7.58–9.75[24],[25],[27],[30]−[32]"
CC(C)c1ccccc1S(=O)(=O)c1cc(N)c2ncccc2c1[N+](=O)[O-] [PD160170],pKi (BRET),Nluc-Y1R(Y192) [1],7.45 ± 0.05
same,reference values (literature),Y1R [3],7.30 and 7.32
SR142948,reference values (literature),NTS1R,"8.05–8.99[42],[44],[50],[53]"
same,pKi (BRET),Nluc-NTS1R(T227),7.93 ± 0.12
Neurotensin(8–13) [NT(8–13)],reference values (literature),NTS1R,"8.27–9.85[42],[44],[50]−[52]"
O=C1CCCN1CC#CCN1CCCC1 [oxotremorine],Ki,Nluc-M1R(G176) [7],1000 nM
same,reference values (literature),M1R,"5.48–5.86[55],[57],[59]"
"C=CC[N@@+]12CC[C@@]34c5ccccc5N5/C=C6/[C@H]7C[C@H]8[C@@]9(CC[N@@+]8(CC=C)C/C7=C/CO)c7ccccc7N(/C=C(/[C@@H](C[C@@H]31)/C(=C\CO)C2)[C@H]54)[C@@H]69 [alcuronium, Alcuronium]",displacement of fluorescent ligand 4,Nluc-M1R(G176) [7]; Nluc-M1R(G176),displace the dualsteric ligand 4 completely
same,reference values (literature),M1R,"5.01,[57] 5.25[55]"
CCCCc1nc(Cl)c(CO)n1Cc1ccc(-c2ccccc2-c2nn[nH]n2)cc1 [losartan],reference values (literature),AT1R,"7.23–8.00[41],[44],[46],[48],[49]"
Cc1cc(/C=C/C=C/c2ccc(N(C)C)cc2)cc(C)[n+]1CCNC(=O)CCc1cn(CCCCC2CCN(CC(=O)N3c4ccccc4NC(=O)c4ccccc43)CC2)cn1 [compound 4],Kd,Nluc-M1R(G176) [9]; [13],2.24 nM
same,Kd,Nluc-M1R(G176) [9]; [14],2.26 nM
same,Kd,Nluc-M1R(Nterm),6.03 nM
same,koff,Nluc-M1R(G176) [10],0.00297 s⁻¹
same,kon,Nluc-M1R(G176) [10],367000 M⁻¹ s⁻¹
same,Kd,"Nluc-M1R(G176) [10]; kinetically derived, Nluc-M1R(G176), 4 c = 5 nM, mean ± SEM, read-out: pKd kinetic (converted)",9.12 nM
NC(=O)NCc1ccc(CNC(=O)[C@@H](CCCN=C(N)N)NC(=O)C(c2ccccc2)c2ccccc2)cc1 [BIBO3304],reference values (literature),Y1R [3],"8.76–9.60[27],[30],[31]"
UR-AP178 (peptide),pKd,Nluc-NTS1R(T227) (human) [11],8.32
same,koff,Nluc-NTS1R(T227) (human) [12],0.0138 s⁻¹
same,kon,Nluc-NTS1R(T227) (human) [12],2e+06 M⁻¹ s⁻¹
same,pKd kinetic,Nluc-NTS1R(T227) (human) [12],8.16
"CCOc1nc2cccc(C(=O)O)c2n1Cc1ccc(-c2ccccc2-c2nnn[nH]2)cc1 [candesartan, Candesartan]",Ki,Nluc-AT1R(S186),1.51 nM
same,reference values (literature),AT1R,"8.46–10.28[41],[44],[46]−[48]"
